Laboratory results published in US20090312349A1, “ANTI-INFLAMMATORY MEDICAMENTS” (priority 2004, published 2009).
Like-named read-outs stand apart in the source and are kept apart here.

Target: T1, phospho p-38 alpha kinase (Homo sapiens, UniProt Q16539)
T1 construct: purchased Panvera
Test: P-38 alpha kinase assay (spectrophotometric, pyruvate kinase/lactate dehydrogenase coupled)
Format: biochemical
Description: In this assay, the oxidation of NADH was continuously measured spectrophometrically. […] The reaction was initiated by adding ATP. The absorption at 340 nm was monitored continuously for up to 4 hours at 30° C. on Polarstar Optima plate reader (BMG). The kinase activity (reaction rate) was calculated from the slope at the time frame from 1.5 h to 2 h.
For inhibition determinations, test compounds were incubated with the reaction mixture for ˜5 min before adding ATP to start the reaction. […] IC50 values were calculated from a series of % inhibition values determined at a range of concentrations of each inhibitor using Prism to process the data and fit inhibition curves. Generally, the rates obtained at the time frame of 1.5 h to 2 h were used for these calculations.

[1] = Table 3, rates at […] to 2 h, read-out: IC50
[2] = Table 5, assay not named, read-out: uM

T1 sequence (Q16539 whole entry): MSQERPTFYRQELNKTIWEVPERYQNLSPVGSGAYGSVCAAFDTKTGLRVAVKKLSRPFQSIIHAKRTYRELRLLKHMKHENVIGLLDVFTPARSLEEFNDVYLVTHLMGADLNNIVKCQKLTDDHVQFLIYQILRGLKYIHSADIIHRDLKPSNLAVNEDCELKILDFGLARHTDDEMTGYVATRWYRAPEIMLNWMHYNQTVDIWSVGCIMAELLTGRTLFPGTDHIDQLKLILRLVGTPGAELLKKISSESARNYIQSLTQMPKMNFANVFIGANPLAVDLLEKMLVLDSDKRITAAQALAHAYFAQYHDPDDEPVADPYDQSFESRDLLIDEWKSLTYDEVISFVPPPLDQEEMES

Compound | IC50 [2] [µM] | also measured
CC(C)(C)c1cc(NC(=O)Nc2cccc(F)c2F)n(-c2ccc(CC(=O)O)cc2)n1 [Example 204, 2-(4-(3-t-butyl-5-(3-(2,3-difluorophenyl)ureido)-1H-pyrazol-1-yl)-phenyl)acetic acid] | – | IC50 [1]: 0.008 µM
COc1cccc(-n2nc(C(C)(C)C)cc2NC(=O)Nc2ccc(F)cc2)c1 [Example 206, 1-(3-t-butyl-1-(3-methoxyphenyl)-1H-pyrazol-5-yl)-3-(4-fluorophenyl)urea] | – | IC50 [1]: 0.013 µM
CC(C)(C)c1cc(NC(=O)Nc2cccc(Cl)c2Cl)n(-c2cccc(C(N)=O)c2)n1 [Example 289, 1-[3-t-butyl-1-(3-carbamoylphenyl)-1H-pyrazol-5-yl]-3-(2,3-dichlorophenyl)urea] | – | IC50 [1]: 1.3 µM
CC(C)(C)c1cc(NC(=O)Nc2cccc(Cl)c2)n(-c2cccc(CO)c2)n1 [Example 303] | 0.089 | –
COc1cccc(NC(=O)Nc2cc(C(C)(C)C)nn2-c2cccc(CO)c2)c1 [Example 306, 1-{3-t-butyl-1-[3-(hydroxymethyl)phenyl]-1H-pyrazol-5-yl}-3-(3-methoxyphenyl)urea] | 0.058 | –
CC(C)(C)c1cc(NC(=O)Nc2cccc3ccccc23)n(-c2cccc(CN)c2)n1 [Example 307, 1-(3-t-butyl-1-(3-(aminomethyl)phenyl)-1H-pyrazol-5-yl)-3-(naphthalen-1-yl)urea] | 0.049 | –
CNC(=O)Cc1cccc(-n2nc(C(C)(C)C)cc2NC(=O)Nc2cccc(Cl)c2Cl)c1 [Example 310] | 0.13 | –
CCOC(=O)CCc1cccc(-n2nc(-c3ccccc3)cc2NC(=O)Nc2ccc(Cl)cc2)c1 [Example 311, 3-(3-{5-[3-(4-chlorophenyl)-ureido]-3-phenyl-pyrazol-1-yl}-phenyl)-propionic acid ethyl ester] | 0.182 | –
COc1ccc(-n2nc(C(C)(C)C)cc2NC(=O)Nc2cccc(F)c2F)cc1 [Example 312, 1-[3-t-butyl-1-(4-methoxyphenyl)-1H-pyrazol-5-yl]-3-(2,3-difluorophenyl)urea] | 0.349 | –
CCOC(=O)CCc1cccc(-n2nc(C(C)C)cc2NC(=O)Nc2ccc(Cl)cc2)c1 [Example 313, ethyl 3-(3-(5-(3-(4-chlorophenyl)ureido)-3-isopropyl-1H-pyrazol-1-yl)phenyl)propanoate] | 0.25 | –
CCOC(=O)c1ccc(-n2nc(C(C)(C)C)cc2NC(=O)Nc2cccc(F)c2F)cc1 [Example 314, ethyl 4-{3-t-butyl-5-[3-(2,3-difluorophenyl)ureido]-1H-pyrazol-1-yl}benzoate] | 0.25 | –
CC(C)(C)c1cc(NC(=O)Nc2cccc(F)c2F)n(-c2ccc(CO)cc2)n1 [Example 315, 1-{3-t-butyl-1-[4-(hydroxymethyl)phenyl]-1H-pyrazol-5-yl}-3-(2,3-difluoro-phenyl)urea] | – | % @ concentration, uM (Table 5, @ 10 uM): 54% @ 10
CCOC(=O)Cc1ccc(-n2nc(C(C)(C)C)cc2NC(=O)Nc2cccc3ccccc23)cc1 [Example 316, ethyl 2-(4-{3-t-butyl-5-[3-(naphthalen-1-yl)ureido]-1H-pyrazol-1-yl}phenyl)acetate] | 0.42 | –
CCOC(=O)Cc1ccc(-n2nc(C(C)(C)C)cc2NC(=O)Nc2ccc(Cl)cc2)cc1 [Example 317, ethyl 2-(4-{3-t-butyl-5-[3-(4-chlorophenyl)ureido]-1H-pyrazol-1-yl}phenyl)acetate] | 0.068 | –
CCOC(=O)Cc1ccc(-n2nc(C(C)(C)C)cc2NC(=O)Nc2cccc(Cl)c2Cl)cc1 [Example 318] | 0.67 | –
CCOC(=O)Cc1cccc(-n2nc(C(C)(C)C)cc2NC(=O)Nc2cccc3ccccc23)c1 [Example 319, ethyl 2-(3-{3-t-butyl-5-[3-(naphthalen-1-yl)ureido]-1H-pyrazol-1-yl}phenyl)acetate] | 0.32 | –
CCOC(=O)Cc1cccc(-n2nc(C(C)(C)C)cc2NC(=O)Nc2ccc(Cl)cc2)c1 [Example 320, ethyl 2-(3-{3-t-butyl-5-[3-(4-chlorophenyl)ureido]-1H-pyrazol-1-yl}phenyl)acetate] | 0.79 | –
CCOC(=O)Cc1cccc(-n2nc(C(C)(C)C)cc2NC(=O)Nc2cccc(Cl)c2Cl)c1 [Example 321, ethyl 2-(3-{3-t-butyl-5-[3-(2,3-dichlorophenyl)ureido]-1H-pyrazol-1-yl}phenyl)acetate] | 0.52 | –
CCOC(=O)C(C)Cc1cccc(-n2nc(C(C)(C)C)cc2NC(=O)Nc2cccc(Cl)c2Cl)c1 (stereo not drawn) [Example 322, ethyl 3-(3-{3-t-butyl-5-[3-(2,3-dichlorophenyl)ureido]-1H-pyrazol-1-yl}phenyl)-2-methylpropanoate] | 2.02 | –
CC(Cc1cccc(-n2nc(C(C)(C)C)cc2NC(=O)Nc2cccc(Cl)c2Cl)c1)C(=O)O (stereo not drawn) [Example 323, 3-(3-{3-t-butyl-5-[3-(2,3-dichlorophenyl)ureido]-1H-pyrazol-1-yl}-1-phenyl)-2-methylpropanoic acid] | – | % @ concentration, uM (Table 5, @ 1 uM): 9%; % @ concentration, uM (Table 5, @ 10 uM): 51%
CCOC(=O)C(C)Cc1ccc(-n2nc(C(C)(C)C)cc2NC(=O)Nc2cccc3ccccc23)cc1 (stereo not drawn) [Example 324, ethyl 3-(4-{3-t-butyl-5-[3-(naphthalen-1-yl)ureido]-1H-pyrazol-1-yl}phenyl)-2-methylpropanoate] | – | % @ concentration, uM (Table 5, @ 10 uM): 40% @ 10
CC(Cc1ccc(-n2nc(C(C)(C)C)cc2NC(=O)Nc2cccc3ccccc23)cc1)C(=O)O (stereo not drawn) [Example 325, 3-(4-{3-t-butyl-5-[3-(naphthalen-1-yl)ureido]-1H-pyrazol-1-yl}phenyl)-2-methylpropanoic acid] | – | % @ concentration, uM (Table 5, @ 10 uM): 54% @ 10
CCOC(=O)C(C)Cc1ccc(-n2nc(C(C)(C)C)cc2NC(=O)Nc2ccc(Cl)cc2)cc1 (stereo not drawn) [Example 326, ethyl 3-(4-{3-t-butyl-5-[3-(4-chlorophenyl)ureido]-1H-pyrazol-1-yl}phenyl)-2-methylpropanoate] | – | % @ concentration, uM (Table 5, @ 10 uM): 41% @ 10
CC(Cc1ccc(-n2nc(C(C)(C)C)cc2NC(=O)Nc2ccc(Cl)cc2)cc1)C(=O)O (stereo not drawn) [Example 327, 3-(4-{3-t-butyl-5-[3-(4-chlorophenyl)ureido]-1H-pyrazol-1-yl}phenyl)-2-methylpropanoic acid] | 0.81 | –
CCOC(=O)c1cccc(-n2nc(-c3ccccc3)cc2NC(=O)Nc2cccc3ccccc23)c1 [Example 328, ethyl 3-[5-(3-naphthalen-1-yl-ureido)-3-phenyl-pyrazol-1-yl]benzoate] | – | % @ concentration, uM (Table 5, @ 10 uM): 68% @ 10
CC(C)(O)c1cccc(-n2nc(-c3ccccc3)cc2NC(=O)Nc2cccc3ccccc23)c1 [Example 329, 1-{1-[3-(2-hydroxypropan-2-yl)phenyl]-3-phenyl-1H-pyrazol-5-yl}-3-(naphthalen-1-yl)urea] | 0.25 | –
O=C(Nc1ccc(Cl)cc1)Nc1cc(-c2ccccc2)nn1-c1ccc(CO)cc1 [Example 331, 1-(4-chlorophenyl)-3-{1-[4-(hydroxymethyl)phenyl]-3-phenyl-1H-pyrazol-5-yl}-urea] | – | % @ concentration, uM (Table 5, @ 10 uM): 71% @ 10
CCOC(=O)c1cccc(-n2nc(C(C)C)cc2NC(=O)Nc2cccc3ccccc23)c1 [Example 332, ethyl 3-(3-isopropyl-5-[3-(naphthalen-1-yl)ureido]-1H-pyrazol-1-yl)benzoate] | 0.05 | –
CC(C)c1cc(NC(=O)Nc2cccc3ccccc23)n(-c2cccc(C(C)(C)O)c2)n1 [Example 333, 1-{1-[3-(2-hydroxypropan-2-yl)phenyl]-3-isopropyl-1H-pyrazol-5-yl}-3-(naphthalen-1-yl)urea] | 2.44 | –
